Assay [1] concerns MDA-MB-231 human breast adenocarcinoma. The experiment in a line: MDA-MB-231 CCK-8 proliferation assay. The class given is cell-based. The conditions noted are these: MDA-MB-231 cells, 72 hr. As for the experimental part: (§1) The following cancer cell lines were employed: A549 human lung carcinoma (ATCC, #CCL-185); BT-474 human breast carcinoma (ATCC, #HTB-20); MDA-MB-231 human breast adenocarcinoma (ATCC, #CRM−HTB-26); MDA-MB-468 human breast adenocarcinoma (ATCC, #HTB-132); MV-4-11 human acute myeloid leukemia (ATCC, #CRL-9591); and U-87 MG human glioblastoma (ATCC, #HTB-14). Cell lines were cultured essentially according to ATCC recommendations.
(§2) 3-fold serial dilutions of each test compound were prepared ranging from 20 μM to 1.02 nM.
(§3) % Inhibition=100−(D−B)/(S−B)*100%. • S: Absorbance of cells treated with DMSO • D: Absorbance of compound-treated cells • B: Absorbance of medium with DMSO without cells
A general note: Tetrazolium assays rely on reduction of a dye to a coloured formazan, in cell work by metabolically active cells.

A further assay has as its system ERBB2. In words: ERBB2 (HER2) flow cytometry protein degradation assay in BT-474 cells. Format: cell-based, human. The conditions noted are these: DC50, BT-474 cells, 24 hr. A digest of the protocol: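 BT-474 cells trypsinised after compound treatment and stained with PE-conjugated anti-ERBB2 antibody, 30 min at 25° C in the dark, then fixed in 1% paraformaldehyde for flow cytometry. % inhibition = 100−(D−B)/(S−B)*100, using treated, untreated-stained and unstained cell fluorescence.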
For orientation: In flow cytometry, cells or beads pass a laser one at a time.

Assay [2] deals with MV-4-11 human acute myeloid leukemia. The experiment in a line: MV-4-11 CCK-8 proliferation assay. Format: cell-based. The following applies: MV-4-11 cells, 72 hr. Put shortly: (§4)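 Cells grown per ATCC recommendations were treated with 3-fold serial compound dilutions from 20 μM to 1.02 nM. CCK-8 absorbance was converted to % inhibition against DMSO-treated cells, with cell-free medium containing DMSO as the blank.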

Assay [3] concerns MDA-MB-468 human breast adenocarcinoma. The experiment in a line: MDA-MB-468 CCK-8 proliferation assay. The class given is cell-based. The conditions noted are these: MDA-MB-468 cells, 72 hr. The method, then:
as §1, §2, §3

Assay [4] concerns the target T1, HSP90α protein (Homo sapiens, UniProt P07900).
T1 construct: purchased BPS Bioscience #50298
The experiment in a line: HSP90α-binding FP (FITC) assay. The conditions noted are these: FP competition with FITC-geldanamycin. A digest of the protocol:
(§5)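 Fluorescence polarization measured competition with N-terminal human HSP90α, using either FITC-geldanamycin or BODIPY-labelled triazolone RNK04010 as tracer (5 nM final each). Compounds were tested in 2.5-fold dilutions from 20 μM to 5.2 nM, with incubation at 25 °C for 120 min (FITC) or 300 min (BODIPY).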

Assay [5] concerns the target T2, MAPK7 (Homo sapiens, UniProt Q13164). In words: MAPK7 Western blot protein degradation assay in U-87 MG cells. Format: cell-based. Also on record: U-87 MG human glioblastoma cells, which express MAPK7; endogenous in cells; host or cells: U-87 MG. The following applies: 48 hr. Put shortly:
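U-87 MG glioblastoma cells treated with compounds at various concentrations for 48 h at 37 °C. MAPK7 (ERK5) levels in protein-normalized lysates measured by Western blot with β-actin as loading reference, quantified by fluorescence imaging.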
In general terms: A western blot detects proteins with antibodies after separation by electrophoresis.

Assay [6] deals with U-87 MG human glioblastoma. In words: U87 MG CCK-8 proliferation assay. The following applies: Homo sapiens, U-87 MG, 72 h, U-87 MG cells, read-out: U87MG CCK-8. The class given is cell-based. Put shortly:
as §4

The target in assay [7] is T1, HSP90α protein. In words: HSP90α-binding FP (BODIPY) assay. The following applies: FP competition with BODIPY-labeled RNK04010. A digest of the protocol:
as §5

For assay [8], the system named is A549 human lung carcinoma. The experiment in a line: A549 CCK-8 proliferation assay. The following applies: A549 cells, 72 hr. Format: cell-based. As for the experimental part:
as §1, §2, §3

The target of assay [9] is T2, MAPK7. In words: MAPK7 kinase assay (ADP-Glo). Format: biochemical. More on the design: purchased Carna Biosciences #04-146. The following applies: ATP 340 μM. A digest of the protocol:
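Recombinant human MAPK7 (20 nM) with 0.1 mg/ml myelin basic protein and 340 μM ATP; compounds in 3-fold dilutions from 50 μM to 2.54 nM. ADP formation read by ADP-Glo luminescence, scaled between 0.5% DMSO and 10 μM XMD17-109 controls.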

Broadly, the IC50 is the concentration that gives 50% inhibition. A high value points to a need for much substance.

T2 sequence (Q13164 whole entry): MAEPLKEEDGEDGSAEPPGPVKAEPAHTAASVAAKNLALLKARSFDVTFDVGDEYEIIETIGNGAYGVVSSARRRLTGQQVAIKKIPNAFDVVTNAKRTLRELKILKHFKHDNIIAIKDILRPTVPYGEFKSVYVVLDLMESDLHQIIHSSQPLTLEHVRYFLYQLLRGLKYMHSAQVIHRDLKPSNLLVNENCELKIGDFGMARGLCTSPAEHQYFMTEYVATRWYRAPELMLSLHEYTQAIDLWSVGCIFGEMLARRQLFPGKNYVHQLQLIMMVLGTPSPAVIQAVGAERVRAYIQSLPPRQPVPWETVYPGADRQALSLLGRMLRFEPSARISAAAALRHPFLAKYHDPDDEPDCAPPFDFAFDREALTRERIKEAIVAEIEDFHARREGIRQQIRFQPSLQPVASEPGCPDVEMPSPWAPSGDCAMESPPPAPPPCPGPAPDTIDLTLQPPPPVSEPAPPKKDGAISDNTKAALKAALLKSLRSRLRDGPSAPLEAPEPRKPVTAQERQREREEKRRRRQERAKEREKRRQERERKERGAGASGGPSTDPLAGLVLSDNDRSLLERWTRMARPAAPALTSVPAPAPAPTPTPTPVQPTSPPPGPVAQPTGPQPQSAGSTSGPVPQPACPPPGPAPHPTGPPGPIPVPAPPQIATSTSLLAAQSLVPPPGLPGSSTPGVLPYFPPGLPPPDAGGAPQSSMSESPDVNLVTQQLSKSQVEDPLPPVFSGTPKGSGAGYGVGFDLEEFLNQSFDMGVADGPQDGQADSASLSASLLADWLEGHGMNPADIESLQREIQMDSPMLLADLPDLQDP

With `CCOc1cc(N2CCC(C(=O)N3CCC(CN4CCN(Cc5ccc(-n6c(O)nnc6-c6cc(CC)c(O)cc6O)cc5)CC4)CC3)CC2)ccc1Nc1ncc2c(n1)N(C)c1ccccc1C(=O)N2C` [Compound 013, 2-((2-ethoxy-4-(4-(4-((4-(4-(3-(5-ethyl-2,4-dihydroxyphenyl)-5-hydroxy-4H-1,2,4-triazol-4-yl)benzyl)piperazin-1-yl)methyl)piperidine-1-carbonyl)piperidin-1-yl)phenyl)amino)-5,11-dimethyl-5H-benzo[e]pyrimido[5,4-b][1,4]diazepin-6(11H)-one], the EC50 was 100 to 1000 nM in assay [1]; below 100 nM in [2] (Homo sapiens, MV4-11); 100 to 1000 nM in assay [3]; 100 to 1000 nM in assay [6]. Moreover, the ERBB2 degradation result with ERBB2 is reported as “B (DC50 = 100-1000 nM)”. The same molecule returned a concentration for half-maximal inhibition (IC50) on HSP90α protein [4] of 100 to 1000 nM. Also, the “MAPK7 degradation (30 nM)” value at MAPK7 [5] is “C (< 33% degradation)”. Moreover, the “MAPK7 degradation (100 nM)” value at MAPK7 [5] is given as “C (< 33% degradation)”. For the same molecule, the “MAPK7 degradation (1000 nM)” value on MAPK7 [5] is recorded as “A (>66% degradation)”.
Regarding `CCOc1cc(N2CCC(C(=O)N3CCC(N4CCN(c5ccc(-n6c(O)nnc6-c6cc(C(C)C)c(O)cc6O)cc5)CC4)CC3)CC2)ccc1Nc1ncc2c(n1)N(C)c1ccccc1C(=O)N2C` [Compound 040, 2-((4-(4-(4-(4-(4-(3-(2,4-dihydroxy-5-isopropylphenyl)-5-hydroxy-4H-1,2,4-triazol-4-yl)phenyl)piperazin-1-yl)piperidine-1-carbonyl)piperidin-1-yl)-2-ethoxyphenyl)amino)-5,11-dimethyl-5,11-dihydro-6H-benzo[e]pyrimido[5,4-b][1,4]diazepin-6-one], the EC50 in [1] was below 100 nM; in assay [2] (Homo sapiens, MV4-11) it was below 100 nM; in assay [3], below 100 nM; in assay [8] it was 100 to 1000 nM; in [6], 100 to 1000 nM. At HSP90α protein [7], this molecule displayed an IC50 of 100 to 1000 nM. For the same molecule, at MAPK7 [5], the “MAPK7 degradation (30 nM)” value is “C (< 33% degradation)”. Further, the “MAPK7 degradation (100 nM)” value on MAPK7 [5] is “B (33-66% degradation)”. Further, the “MAPK7 degradation (300 nM)” value at MAPK7 [5] (300 nM) is listed as “A (>66% degradation)”. At MAPK7 [5], the “MAPK7 degradation (1000 nM)” value was “A (>66% degradation)”.
`CCOc1cc(N2CCC(C(=O)N3CCC(CN4CCN(Cc5ccc(-n6c(O)nnc6-c6cc(C(C)C)c(O)cc6OC)cc5)CC4)CC3)CC2)ccc1Nc1ncc2c(n1)N(C)c1ccccc1C(=O)N2C` [Compound 052, 2-((2-ethoxy-4-(4-(4-((4-(4-(3-hydroxy-5-(4-hydroxy-5-isopropyl-2-methoxyphenyl)-4H-1,2,4-triazol-4-yl)benzyl)piperazin-1-yl)methyl)piperidine-1-carbonyl)piperidin-1-yl)phenyl)amino)-5,11-dimethyl-5,11-dihydro-6H-benzo[e]pyrimido[5,4-b][1,4]diazepin-6-one]: the EC50 in [1] was above 1000 nM; in [2] (Homo sapiens, MV4-11), above 1000 nM; in assay [3], above 1000 nM; in assay [8], above 1000 nM; in assay [6], above 1000 nM. For the same molecule, in the assay on ERBB2, the ERBB2 degradation entry is listed as “C (DC50 > 1000 nM)”. The concentration for half-maximal inhibition (IC50) at HSP90α protein [7] and against MAPK7 [9] was above 1000 nM in each case.
Take `CCOc1cc(N2CCC(C(=O)N3CCC(N4CCN(Cc5ccc(-n6c(O)nnc6-c6cc(C(C)C)c(O)cc6O)cc5)CC4)CC3)CC2)ccc1Nc1ncc2c(n1)N(C)c1ccccc1C(=O)N2C` [Compound 004, 2-((4-(4-(4-(4-(4-(3-(2,4-dihydroxy-5-isopropylphenyl)-5-hydroxy-4H-1,2,4-triazol-4-yl)benzyl)piperazin-1-yl)piperidine-1-carbonyl)piperidin-1-yl)-2-ethoxyphenyl)amino)-5,11-dimethyl-5H-benzo[e]pyrimido[5,4-b][1,4]diazepin-6(11H)-one]: the EC50 in [1] was below 100 nM; in assay [2] (Homo sapiens, MV4-11) it was below 100 nM; in [3] it was below 100 nM; in assay [8] it was 100 to 1000 nM; in [6] it was below 100 nM. The ERBB2 degradation result in the assay on ERBB2 is “B (DC50 = 100-1000 nM)”. The IC50 on HSP90α protein [7] and on HSP90α protein [4] was 100 to 1000 nM throughout. Further, at MAPK7 [5], the “MAPK7 degradation (30 nM)” value is reported as “C (< 33% degradation)”. Moreover, the “MAPK7 degradation (100 nM)” value on MAPK7 [5] is recorded as “C (< 33% degradation)”. Besides, the “MAPK7 degradation (1000 nM)” value at MAPK7 [5] was “A (>66% degradation)”.
In the case of `CCOc1cc(N2CCC(C(=O)NCC3CCN(C(=O)C4CCN(Cc5ccc(-n6c(O)nnc6-c6cc(C(C)C)c(O)cc6O)cc5)CC4)C3)CC2)ccc1Nc1ncc2c(n1)N(C)c1ccccc1C(=O)N2C` (stereo not shown) [Compound 010, N-((1-(1-(4-(3-(2,4-dihydroxy-5-isopropylphenyl)-5-hydroxy-4H-1,2,4-triazol-4-yl)benzyl)piperidine-4-carbonyl)pyrrolidin-3-yl)methyl)-1-(4-((5,11-dimethyl-6-oxo-6,11-dihydro-5H-benzo[e]pyrimido[5,4-b][1,4]diazepin-2-yl)amino)-3-ethoxyphenyl)piperidine-4-carboxamide], the EC50 in assay [1] was above 1000 nM; in assay [2] (Homo sapiens, MV4-11), below 100 nM; in [3], above 1000 nM; in [6] it was 100 to 1000 nM. Besides, the ERBB2 degradation entry in the assay with ERBB2 is reported as “C (DC50 > 1000 nM)”. Further, on HSP90α protein [4], the IC50 was in the range of 100 to 1000 nM.
Consider `CCOc1cc(N2CCC(C(=O)N3CCC(CN4CCN(Cc5ccc(-n6c(C(=O)NC(C)C(F)(F)F)nnc6-c6cc(CC)c(O)cc6O)cc5)CC4)CC3)CC2)ccc1Nc1ncc2c(n1)N(S(C)(=O)=O)c1ccccc1C(=O)N2C.Cl` (stereo not shown) [Compound 078, 4-(4-((4-((1-(1-(3-ethoxy-4-((5-methyl-11-(methylsulfonyl)-6-oxo-6,11-dihydro-5H-benzo[e]pyrimido[5,4-b][1,4]diazepin-2-yl)amino)phenyl)piperidine-4-carbonyl)piperidin-4-yl)methyl)piperazin-1-yl)methyl)phenyl)-5-(5-ethyl-2,4-dihydroxyphenyl)-N-(1,1,1-trifluoropropan-2-yl)-4H-1,2,4-triazole-3-carboxamide], for which the ERBB2 degradation result with ERBB2 is given as “B (DC50 = 100-1000 nM)”. Further, the IC50 on HSP90α protein [7] and against MAPK7 [9] was 100 to 1000 nM throughout. Besides, the EC50 in assay [2] was below 100 nM; in assay [8], 100 to 1000 nM; in assay [6] it was 100 to 1000 nM.
`CCOc1cc(N2CCC(C(=O)N3CCN(Cc4ccc(-n5c(O)nnc5-c5cc(CC)c(O)cc5O)cc4)CC3)CC2)ccc1Nc1ncc2c(n1)N(C)c1ccccc1C(=O)N2C` [Compound 049, 2-((2-ethoxy-4-(4-(4-(4-(3-(5-ethyl-2,4-dihydroxyphenyl)-5-hydroxy-4H-1,2,4-triazol-4-yl)benzyl)piperazine-1-carbonyl)piperidin-1-yl)phenyl)amino)-5,11-dimethyl-5,11-dihydro-6H-benzo[e]pyrimido[5,4-b][1,4]diazepin-6-one]: the EC50 in [1] is below 100 nM; in assay [2] (Homo sapiens, MV4-11) it was below 100 nM; in assay [3], below 100 nM; in [6], 100 to 1000 nM. The same molecule registered a half-inhibitory concentration (IC50) at HSP90α protein [7] of 100 to 1000 nM.

For the origin of these results see patent US20240124460A1, “METHODS AND COMPOSITIONS FOR TARGETED PROTEIN DEGRADATION” (Ranok Therapeutics (Hangzhou) Co. Ltd., priority 2020, published 2024).
